In US20190365927A1, “COMPOSITION FOR PHOTODYNAMIC THERAPY USING GENE EXPRESSING FLUORESCENT PROTEIN AND PHOTOSENSITIZER, AND PHOTODYNAMIC THERAPY METHOD USING SAME” (priority 2017, published 2019):

What was measured:
[1] = Absorbance spectrum of the photosensitizer; format: physicochemical; settings: FIG. 1A
[2] = test system: GFP+ and GFP− NCI-H460 cells; test: In vitro fluorescence intensity measurement after blue light irradiation (FRET); format: cell-based, human; settings: RB 0, 5, 10, 50 uM, blue laser light 473 nm, FIG. 15
Experimental: Fluorescent intensities of GFP− and GFP+ cells after blue light irradiation were measured in the presence or absence of RB. The specific experimental procedure is as follows.
1×10^6 cells of GFP− and GFP+ NCI-H460 cell lines as produced by the method described in the 1-1 were cultured in a 75 cm^2 cell culture dish containing RPMI-1640 medium supplemented with 10% FBS. After 12 hours, the culture medium of the cell line was replaced with RPMI-1640 medium without FBS. Then, RBs of various concentrations (0 uM, 5 uM, 10 uM, 50 uM) were added thereto. The culturing was done for 4 hours to accumulate RB in the cells. Then, the cells were obtained by centrifugation. Pellets of each cell group were suspended in 1 ml PBS. Then, the cell was irradiated with blue laser light (473 nm, radiation dose rate=80 mW/cm^2). The light-emission spectrum of each cell group was measured using a spectrofluorometer (JASCO Inc.). Measurements in each group were repeated 5 times. The FRET efficiency was calculated by the following equation: […]
F(DA): GFP fluorescence intensity in the presence of RB, and
F(D): GFP fluorescence intensity in the absence of RB.

[3] = test system: eGFP+ and eGFP− H460 and B16F10 tumors; test: Tumor-transplanted animal test (cFRET PDT); format: in vivo, mice
Experimental: B 16F10 and GFP-B16-F0 Melanoma cells were harvested using a cell lifter and were resuspended in serum-free DMEM. Approximately 2×10^6/100 μL of B16F10 and GFP-B16-F0 melanoma cells were subcutaneously injected into both sides of female C57BL/6 mice. After 10 to 15 days, mice were divided into 4 groups based on the mean tumor diameter when the mean tumor diameter reached a minimum of 0.3 cm. The mice were then randomly divided into 4 groups (n=5 per group). Control animals received 0.9% saline instead of chemical substance.
In the experimental group, RB ([…], 53 nM/mL) was intravenously administered thereto twice a week, and blue light (2 min) was irradiated to the tumor site in 4 hours after the injection. The mouse body weight and tumor volume were measured twice a week. Three weeks later, the mice were euthanized. Tumors were removed therefrom and fixed to 10% neutral buffered formalin. The next day, the image was captured. Similar experiments were performed on GFP+ and GFP-H460 cells. About 2×10^6/100 μL of cells were injected subcutaneously into both sides thereof.

Lgr5+ cells = test: cFRET PDT of colon polyps in azoxymethane/DSS-treated GFP-Lgr5 mice; format: in vivo, mouse; settings: FIG. 4E
Experimental: To generate sporadic tumors, azoxymethane (10 mg/kg) was intraperitoneally injected into wild-type mice or GFP-Lgr5 mice. In one week after injection, mice were given 2% DSS as drinking water for 7 days. The next 7 days, the mice were given water normally. This DSS application cycle was repeated three times. Mice were randomly divided into 4 groups (n=5 per group).
Another group of 5 mice as wild-type and GFP-Lgr5 mice was set to a group that was not chemically treated. RB was intravenously injected (50 nM/mL, 0.75 ml/kg) into the wild type and GFP-Lgr5 mice of each experimental group twice a week for 7 weeks. And, in 4 hours after the RB injection, blue light (2 min) irradiation was performed via an anal penetration.
Polyp growth was monitored by endoscopy via polyp diameter measurements. After anesthesia, the mice were placed on the stage for colonoscopy. […] Each image was captured by capturing the image from the recorded video file using frame-extraction software. The tumor size was measured from the images (width×height×2). The distance-dependent magnification of the colonoscopy was calculated by imaging using a ruler in the same field.
To compare tumor sizes before and after FR-PDT, well-isolated tumors were selected. The locomotion path used in […] was recorded in detail for each tumor. The tumor location is determined based on the structure of the surrounding tissue. […]

eGFP+-Lgr5+ cells = test: Visualization of in vivo cell death with FLIVO probe; design: species or system mouse; settings: Lgr5-EGFP-IRES-creERT2 knock-in mice, RB treatment and laser light irradiation
Experimental: To measure cell death in live animals, FLIVO™ probes were diluted with PBS containing 1% DMSO at doses according to animal weight. The fluorescent red probe FLIVO™ (Immunochemistry Technologies LLC, Abcys SA, Paris, France) was intravenously injected into wild type and GFP-Lgr5 mice. The mouse was euthanized after 1 hour and the colon tissue was separated therefrom. Fluorescent signals from FLIVO™ were imaged using a confocal microscope.

Q: For `O=C1OC2(c3cc(I)c(O)c(I)c3Oc3c2cc(I)c(O)c3I)c2c(Cl)c(Cl)c(Cl)c(Cl)c21` [RB, rose bengal], which maximum absorbance [1] is on record?
A: The maximum absorbance was 549 nm.

Q: What about the shoulder absorbance spectrum [1] of the same compound?
A: The shoulder absorbance spectrum was 510 nm.

Q: And the “emission intensity at 508 nm (emission peak of GFP)” value [2]?
A: Its value is “decreases as the concentration of RB increases”.

Q: What about the tumor growth ([3]; GFP+ B16F10 cells in mouse, 473 nm laser light, FIG. 3D, 3E) of the same compound?
A: The tumor growth was “remarkable tumor inhibiting effect”.

Q: What about the “eGFP+ cells removed in grafted tumor” value ([3]; mixture of eGFP+ and eGFP− sublines of H460 and B16F10 grafted to mouse, after second round of 473 nm irradiation, FIG. 3B, 3C) of the same compound?
A: Its value is about 80%.

Q: What about the polyp growth (Lgr5+ cells; Lgr5-EGFP-IRES-creERT2 knock-in mice compared to wild-type mice, 473 nm laser, 4F) of the same compound?
A: Its polyp growth is “polyp growth was inhibited”.

Q: And the number of polyps (Lgr5+ cells; cFRET treatment)?
A: Its number of polyps is “decreased”.

Q: And the “cell death signal in eGFP+-Lgr5+ cell region versus adjacent low-GFP-expression region” value (eGFP+-Lgr5+ cells)?
A: Its value is “stronger”.
